Values after ≈ are worked out from the molar mass of the structure shown. Read-outs that look alike come from different tables or passages of the source.
Experiments:
H. influenzae 23 = assay: MIC against Haemophilus strains; format: cell-based
H. influenzae P318 = assay: MIC against Haemophilus strains; format: cell-based
H. influenzae 35056 = assay: MIC against Haemophilus strains; format: cell-based
H. influenzae 1745 = assay: MIC against Haemophilus strains; format: cell-based
H. influenzae 451 = assay: MIC against Haemophilus strains; format: cell-based
H. influenzae 49766 = assay: MIC against Haemophilus strains; format: cell-based
H. influenzae 1381 = assay: MIC against Haemophilus strains; format: cell-based
M. tuberculosis SGPGI [1] = assay: MIC against M. tuberculosis strains, agar dilution; format: cell-based, Mycobacterium tuberculosis; conditions: Mycobacterium tuberculosis, S. No. 05 Mt-, Middle Brook 7H10 + OADC, 37° C., 14-21 days, read-out: MIC
M. tuberculosis M-66 = assay: MIC against M. tuberculosis strains, agar dilution; format: cell-based, Mycobacterium tuberculosis; conditions: Mycobacterium tuberculosis, M66, S. No. 08 Mt-, Middle Brook 7H10 + OADC, 37° C., 14-21 days, read-out: MIC
M. tuberculosis PC [2] = assay: MIC against M. tuberculosis strains, agar dilution; format: cell-based, Mycobacterium tuberculosis; conditions: Mycobacterium tuberculosis, S. No. 19 Mt-, Middle Brook 7H10 + OADC, 37° C., 14-21 days, read-out: MIC
M. tuberculosis PC [3] = assay: MIC against M. tuberculosis strains, agar dilution; format: cell-based, Mycobacterium tuberculosis; conditions: Mycobacterium tuberculosis, S. No. 17 Mt-, Middle Brook 7H10 + OADC, 37° C., 14-21 days, read-out: MIC
[4] = system: M. avium intracellulare 559/97; assay: MIC against MAC strains, agar dilution; format: cell-based; conditions: Mycobacterium avium; S. No. 15 Mai-7, M. avium intracellulare 559/97; Middle Brook 7H10 + OADC, 37° C., 14-21 days; read-out: MIC
M. tuberculosis PC [5] = assay: MIC against M. tuberculosis strains, agar dilution; format: cell-based, Mycobacterium tuberculosis; conditions: Mycobacterium tuberculosis, S. No. 20 Mt-, Middle Brook 7H10 + OADC, 37° C., 14-21 days, read-out: MIC
M. tuberculosis SGPGI [6] = assay: MIC against M. tuberculosis strains, agar dilution; format: cell-based, Mycobacterium tuberculosis; conditions: Mycobacterium tuberculosis, S. No. 07 Mt-, Middle Brook 7H10 + OADC, 37° C., 14-21 days, read-out: MIC
M avium ATCC 25291 = assay: MIC against MAC strains, agar dilution; format: cell-based, Mycobacterium avium; conditions: Mycobacterium avium, ATCC25291; S. No. 02 Ma-2, M avium ATCC 25291; Middle Brook 7H10 + OADC, 37° C., 14-21 days; read-out: MIC
M. tuberculosis PC 4782 = assay: MIC against M. tuberculosis strains, agar dilution; format: cell-based, Mycobacterium tuberculosis; conditions: Mycobacterium tuberculosis, PC4782, S. No. 21 Mt-, Middle Brook 7H10 + OADC, 37° C., 14-21 days, read-out: MIC
M. tuberculosis PC [7] = assay: MIC against M. tuberculosis strains, agar dilution; format: cell-based, Mycobacterium tuberculosis; conditions: Mycobacterium tuberculosis, S. No. 22 Mt-, Middle Brook 7H10 + OADC, 37° C., 14-21 days, read-out: MIC
[8] = system: M. avium intracellulare 540/96; assay: MIC against MAC strains, agar dilution; format: cell-based; conditions: Mycobacterium avium; S. No. 12 Mai-4, M. avium intracellulare 540/96; Middle Brook 7H10 + OADC, 37° C., 14-21 days; read-out: MIC
M. avium ATCC 1723 = assay: MIC against MAC strains, agar dilution; format: cell-based, Mycobacterium avium; conditions: Mycobacterium avium, ATCC1723; S. No. 03 Ma-3, M. avium ATCC 1723; Middle Brook 7H10 + OADC, 37° C., 14-21 days; read-out: MIC
M. tuberculosis M-164 = assay: MIC against M. tuberculosis strains, agar dilution; format: cell-based, Mycobacterium tuberculosis; conditions: Mycobacterium tuberculosis, M164, S. No. 10 Mt-, Middle Brook 7H10 + OADC, 37° C., 14-21 days, read-out: MIC
M. tuberculosis 35801 = assay: MIC against M. tuberculosis strains, agar dilution; format: cell-based, Mycobacterium tuberculosis; conditions: Mycobacterium tuberculosis, S. No. 02 Mt-, Middle Brook 7H10 + OADC, 37° C., 14-21 days, read-out: MIC
M. tuberculosis PC [9] = assay: MIC against M. tuberculosis strains, agar dilution; format: cell-based, Mycobacterium tuberculosis; conditions: Mycobacterium tuberculosis, S. No. 16 Mt-, Middle Brook 7H10 + OADC, 37° C., 14-21 days, read-out: MIC
[10] = system: M. avium intracellulare 926/98; assay: MIC against MAC strains, agar dilution; format: cell-based; conditions: Mycobacterium avium; S. No. 14 Mai-6, M. avium intracellulare 926/98; Middle Brook 7H10 + OADC, 37° C., 14-21 days; read-out: MIC
M. tuberculosis V-591 = assay: MIC against M. tuberculosis strains, agar dilution; format: cell-based, Mycobacterium tuberculosis; conditions: Mycobacterium tuberculosis, V591, S. No. 13 Mt-, Middle Brook 7H10 + OADC, 37° C., 14-21 days, read-out: MIC
M. tuberculosis H37Rv = assay: MIC against M. tuberculosis strains, agar dilution; format: cell-based, Mycobacterium tuberculosis; conditions: Mycobacterium tuberculosis, S. No. 04 Mt-, Middle Brook 7H10 + OADC, 37° C., 14-21 days, read-out: MIC
[11] = Haemophilus influenzae, s. No. 5, H. influenzae 23, read-out: MIC
[12] = Haemophilus influenzae, s. No. 10, H. influenzae P318, read-out: MIC
[13] = Haemophilus influenzae, s. No. 1, H. influenzae 35056, read-out: MIC
[14] = Haemophilus influenzae, s. No. 9, H. influenzae 1745, read-out: MIC
[15] = Haemophilus influenzae, s. No. 8, H. influenzae 451, read-out: MIC
[16] = Haemophilus influenzae, s. No. 6, H. influenzae 49766, read-out: MIC
[17] = Haemophilus influenzae, s. No. 7, H. influenzae 1381, read-out: MIC

Row | Compound | MIC (H. influenzae 23; s. No. 5, H. influenzae 23) | MIC (H. influenzae P318; s. No. 10, H. influenzae P318) | MIC (H. influenzae 35056; s. No. 1, H. influenzae 35056) | MIC (H. influenzae 1745; s. No. 9, H. influenzae 1745) | MIC (H. influenzae 451; s. No. 8, H. influenzae 451) | MIC (H. influenzae 49766; s. No. 6, H. influenzae 49766) | MIC (H. influenzae 1381; s. No. 7, H. influenzae 1381) | MIC (H. influenzae 23; [11]) | MIC (H. influenzae P318; [12]) | MIC (H. influenzae 35056; [13]) | MIC (H. influenzae 1745; [14]) | MIC (H. influenzae 451; [15]) | MIC (H. influenzae 49766; [16]) | MIC (H. influenzae 1381; [17]) | other results
1 | CC(=O)NC[C@H]1CN(c2ccc(N3CCN(c4ccc([N+](=O)[O-])s4)CC3)cc2)C(=O)O1 [Compound No. 6, (S)—N-[[3-[4-[N-1-(5-nitro-2-thienyl)piperazinyl]-phenyl]-2-oxo-5-oxazolidinyl]-methyl]-acetamide] | 16 µg/mL (≈ 35.9 µM) | 16 µg/mL (≈ 35.9 µM) | 16 µg/mL (≈ 35.9 µM) | 16 µg/mL (≈ 35.9 µM) | 16 µg/mL (≈ 35.9 µM) | 16 µg/mL (≈ 35.9 µM) | 16 µg/mL (≈ 35.9 µM) | – | – | – | – | – | – | – | –
2 | CC(=O)NC[C@H]1CN(c2ccc(N3CCN(c4cc(C(OC(C)=O)OC(C)=O)sc4[N+](=O)[O-])CC3)c(F)c2)C(=O)O1 [Compound No. 5, (S)—N-[[3-[3-Fluoro-4-[4-{3-thienyl(2-nitro)-5-acetyloxy}methylacetate]-1-piperazinyl]phenyl]-2-oxo-5-oxazolidinyl]acetamide] | >16 µg/mL | >16 µg/mL | >16 µg/mL | 16 µg/mL (≈ 27 µM) | >16 µg/mL | >16 µg/mL | >16 µg/mL | – | – | – | – | – | – | – | –
3 | CC(=O)NC[C@H]1CN(c2ccc(N3CCN(c4ccc([N+](=O)[O-])s4)CC3)c(F)c2)C(=O)O1 [Compound No. 1, (S)—N-[[3-[3-Fluoro-4-[4-(5-nitro-2-thienyl)-1-piperazinyl]phenyl]-2-oxo-5-oxazolidinyl]methyl]acetamide] | – | – | – | – | – | – | – | > 16 µg/mL | 16 µg/mL (≈ 34.5 µM) | 8 µg/mL (≈ 17.3 µM) | 16 µg/mL (≈ 34.5 µM) | 16 µg/mL (≈ 34.5 µM) | 8 µg/mL (≈ 17.3 µM) | 8 µg/mL (≈ 17.3 µM) | MIC (M. tuberculosis SGPGI [1]): 0.25 µg/mL; MIC (M. tuberculosis M-66): > 32 µg/mL; MIC (M. tuberculosis PC [2]): ≤ 0.125 µg/mL; MIC (M. tuberculosis PC [3]): 0.25 µg/mL; MIC [4]: 0.25 µg/mL; MIC (M. tuberculosis PC [5]): 0.25 µg/mL; MIC (M. tuberculosis SGPGI [6]): 0.5 µg/mL; MIC (M avium ATCC 25291): 0.25 µg/mL; MIC (M. tuberculosis PC 4782): 0.125 µg/mL; MIC (M. tuberculosis PC [7]): 0.5 µg/mL; MIC [8]: 1 µg/mL; MIC (M. avium ATCC 1723): 0.25 µg/mL; MIC (M. tuberculosis M-164): 0.5 µg/mL; MIC (M. tuberculosis 35801): ≤ 0.125 µg/mL; MIC (M. tuberculosis PC [9]): 0.25 µg/mL; MIC [10]: < 0.12 µg/mL; MIC (M. tuberculosis V-591): 0.5 µg/mL
4 | CC(=O)NC[C@H]1CN(c2ccc(N3CCOCC3)c(F)c2)C(=O)O1 [Linezolid, reference compound] | – | – | – | – | – | – | – | 16 µg/mL (≈ 47.4 µM) | 16 µg/mL (≈ 47.4 µM) | 8 µg/mL (≈ 23.7 µM) | 16 µg/mL (≈ 47.4 µM) | 16 µg/mL (≈ 47.4 µM) | 16 µg/mL (≈ 47.4 µM) | 16 µg/mL (≈ 47.4 µM) | MIC (M. tuberculosis SGPGI [1]): 4 µg/mL; MIC (M. tuberculosis H37Rv): 1 µg/mL; MIC (M. tuberculosis M-66): > 32 µg/mL; MIC (M. tuberculosis PC [2]): 0.5 µg/mL; MIC (M. tuberculosis PC [3]): 32 µg/mL; MIC (M. tuberculosis PC [5]): 32 µg/mL; MIC (M. tuberculosis SGPGI [6]): > 32 µg/mL; MIC (M. tuberculosis PC 4782): 1 µg/mL; MIC (M. tuberculosis PC [7]): 32 µg/mL; MIC (M. tuberculosis M-164): 32 µg/mL; MIC (M. tuberculosis 35801): 1 µg/mL; MIC (M. tuberculosis PC [9]): 32 µg/mL; MIC (M. tuberculosis V-591): > 32 µg/mL
5 | O=C(NC[C@H]1CN(c2ccc(N3CCN(c4ccc([N+](=O)[O-])s4)CC3)c(F)c2)C(=O)O1)C(F)F [Compound No. 8, (S)—N-[[3-[3-Fluoro-4-[4-(5-nitro-2-thienyl)-1-piperazinyl]phenyl]-2-oxo-5-oxazolidinyl]methyl]difluoroacetamide] | – | – | – | – | – | – | – | – | – | – | – | – | – | – | MIC (H. influenzae 23; Haemophilus influenzae, 23): > 16 µg/mL; MIC (H. influenzae P318; Haemophilus influenzae, P318): > 16 µg/mL; MIC (H. influenzae 35056; Haemophilus influenzae, 35056): > 16 µg/mL; MIC (H. influenzae 1745; Haemophilus influenzae, 1745): 16 µg/mL (≈ 32 µM); MIC (H. influenzae 451; Haemophilus influenzae, 451): > 16 µg/mL; MIC (H. influenzae 49766; Haemophilus influenzae, 49766): > 16 µg/mL; MIC (H. influenzae 1381; Haemophilus influenzae, 1381): > 16 µg/mL
6 | (S)—N-[[3-[-3-Fluoro-4-[(5-nitro-2-thienyl)-3-methyl-1-piperazinyl]phenyl]-2-oxo-5-oxazolidinyl]methyl]acetamide [Compound No. 10] | >16 µg/mL | >16 µg/mL | >16 µg/mL | >16 µg/mL | >16 µg/mL | >16 µg/mL | >16 µg/mL | – | – | – | – | – | – | – | –
7 | O=C(NC[C@H]1CN(c2ccc(N3CCN(c4ccc([N+](=O)[O-])s4)CC3)c(F)c2)C(=O)O1)C(Cl)Cl [compound 9, (S)—N-[[3-[-3-Fluoro-4-[N-1-(5-nitro-2-thienyl)-piperazinyl]phenyl] -2-oxo-5-oxazolidinyl]methyl]dichloroacetamide] | >16 µg/mL | >16 µg/mL | >16 µg/mL | >16 µg/mL | >16 µg/mL | >16 µg/mL | >16 µg/mL | – | – | – | – | – | – | – | –
8 | C[C@H](Cl)C(=O)NCC1CN(c2ccc(N3CCN(c4ccc([N+](=O)[O-])s4)CC3)c(F)c2)C(=O)O1 (stereo partly drawn) [Compound No. 7, (S)—N-[[3-[3-Fluoro-4-[N-1-{4-(5-nitro-2-thienyl)piperazinyl}]-phenyl]-2-oxo-5-oxazolidinyl]-methyl]-2-chloro-propionamide] | >16 µg/mL | >16 µg/mL | >16 µg/mL | >16 µg/mL | >16 µg/mL | >16 µg/mL | >16 µg/mL | – | – | – | – | – | – | – | –
9 | CC(=O)NC[C@H]1CN(c2ccc(N3CCN(c4ccc(C=O)s4)CC3)c(F)c2)C(=O)O1 [Compound No. 2, (S)—N-[[3-[3-Fluoro-4-[4-(5-formyl-2-thienyl)-1-piperazinyl]phenyl]-2-oxo-5-oxazolidinyl]methyl]acetamide] | – | – | – | – | – | – | – | > 16 µg/mL | > 16 µg/mL | 16 µg/mL (≈ 35.8 µM) | > 16 µg/mL | 16 µg/mL (≈ 35.8 µM) | > 16 µg/mL | 8 µg/mL (≈ 17.9 µM) | –
10 | CC(=O)NC[C@H]1CN(c2ccc(N3CCN(c4ccc(C=O)o4)CC3)c(F)c2)C(=O)O1 [Compound No. 3, (S)—N-[[3-[3-Fluoro-4-[4-(5-formyl-2-furyl)-1-piperazinyl]phenyl]-2-oxo-5-oxazolidinyl]methyl]acetamide] | – | – | – | – | – | – | – | 8 µg/mL (≈ 18.6 µM) | 8 µg/mL (≈ 18.6 µM) | 4 µg/mL (≈ 9.29 µM) | 8 µg/mL (≈ 18.6 µM) | 8 µg/mL (≈ 18.6 µM) | 8 µg/mL (≈ 18.6 µM) | 8 µg/mL (≈ 18.6 µM) | –
